Experimental data: paper PMC10220285, “Development of an assay pipeline for the discovery of novel small molecule inhibitors of human glutathione peroxidases GPX1 and GPX4” (Redox Biology, 2023)

How the values were obtained:
Type in all cases: biochemical
Conditions in all cases: Fig. 9 pan-selenoprotein inhibitors
[1] = molecular target: T1, GR (glutathione reductase) (Homo sapiens, UniProt P00390); test: GR counter-assay
T1 construct: made in house
T1 sequence (P00390 44-522): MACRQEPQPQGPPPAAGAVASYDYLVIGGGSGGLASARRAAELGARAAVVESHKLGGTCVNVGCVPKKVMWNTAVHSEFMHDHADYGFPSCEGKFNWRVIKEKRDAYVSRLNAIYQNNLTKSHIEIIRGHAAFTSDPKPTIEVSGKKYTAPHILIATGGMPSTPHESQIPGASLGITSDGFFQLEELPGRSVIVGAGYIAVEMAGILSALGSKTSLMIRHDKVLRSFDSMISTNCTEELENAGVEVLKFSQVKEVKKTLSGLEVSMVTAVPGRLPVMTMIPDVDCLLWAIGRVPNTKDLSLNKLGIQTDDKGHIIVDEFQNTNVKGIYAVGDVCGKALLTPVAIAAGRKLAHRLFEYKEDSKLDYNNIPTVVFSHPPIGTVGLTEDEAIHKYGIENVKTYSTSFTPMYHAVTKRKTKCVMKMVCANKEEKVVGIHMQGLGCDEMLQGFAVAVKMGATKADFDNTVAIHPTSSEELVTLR
Protocol: (§1) The compound plates were prepared as described previously. Purified recombinant human GPX1, GPX2, GPX4, GR, and TXNRD1 were produced and purified as previously reported [[48], [49], [50]]. As production of GPX2 was not optimized at the onset of screening, only GPX1 and GPX4 underwent library screening, and GPX2 was used as a follow-up.
(§2) Follow-up and orthogonal assays were run in quadruplicate unless otherwise stated. Assay schemes are illustrated in Fig. 1.
To identify false positive compounds that interfere with the primary assay through inhibition of GR, ‘hits’ from the primary screening were run against a GR counter assay to identify this possible off-target inhibition (Fig. 1C). Briefly, 3 μL enzyme mixture (100 nM GR, 0.01% BSA in TES buffer) was dispensed into columns […] of a 1536-well black medium-binding solid-bottom plates. The no-enzyme control (0.01% BSA in TES buffer) was included in column 1 and 2. Compounds and controls (23 nL) were added to each well with a pin tool (Kalypsys), and the plates were incubated for 30 min before 2 μL of substrate mixture (1 mM GSSG 0.4 mM NADPH in TES buffer) was added to each well and absorbance at 340 nm was measured at t = 0 and t = 20 min using a ViewLux Multimodal detector (PerkinElmer).
(§3) Percent activity was determined by first calculating delta RFU (decrease in fluorescence between t = 0 and t = 20/30 min in primary GPX, GR counter-screen, and TXNRD1 assays, or increase in fluorescence between t = 0 and t = 20 min in the Monobromobimane GPX endpoint assay), and normalizing enzyme activity using median delta RFU values for DMSO-treated enzyme control, and DMSO-treated no-enzyme controls.
(§4) Compound inhibitory activity in the qHTS assays was determined by plotting dose-response data for each sample and fitting with a four-parameter logistic fit to assess IC50 values, efficacy (maximal response), and AUC (area under the curve), as previously described. Hits were classified by the quality of the concentration-response curves (CRC). Curve classes −1.1 and −1.2 being the highest-confidence actives with complete CRCs and classes −2.1 and −2.2 being lower-confidence actives with incomplete CRCs.

human GPX2 = molecular target: T2, human GPX2 (Homo sapiens, UniProt P18283); test: GPX2 activity assay (follow-up isoform specificity)
T2 construct: made in house
T2 sequence (P18283 1-190): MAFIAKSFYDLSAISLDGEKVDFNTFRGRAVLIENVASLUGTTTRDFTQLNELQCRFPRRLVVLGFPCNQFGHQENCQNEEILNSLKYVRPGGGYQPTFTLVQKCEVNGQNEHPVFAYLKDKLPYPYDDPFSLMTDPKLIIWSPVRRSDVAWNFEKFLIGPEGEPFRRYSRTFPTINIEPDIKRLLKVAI
Protocol: as §1, §2
Previous work has shown similarities in the substrate specificities of GPX1 and GPX2, and a more unique substrate profile of GPX4 [8].
The GPX2 isoform of human selenoprotein GPXs is found in epithelial cells and has similar substrate specificity with GPX1, but not as much with GPX4 [8]. Additionally, GPX1 and GPX2 both form homotetramers and share similarities in structural homology, although GPX2 has a much slower turnover rate.

GPX1 = molecular target: T3, GPX1 (Homo sapiens, UniProt P07203); test: GR-coupled GPX1 activity assay (NADPH fluorescence, CHP substrate)
T3 construct: made in house; host or cells: E. coli
T3 sequence (P07203 1-203): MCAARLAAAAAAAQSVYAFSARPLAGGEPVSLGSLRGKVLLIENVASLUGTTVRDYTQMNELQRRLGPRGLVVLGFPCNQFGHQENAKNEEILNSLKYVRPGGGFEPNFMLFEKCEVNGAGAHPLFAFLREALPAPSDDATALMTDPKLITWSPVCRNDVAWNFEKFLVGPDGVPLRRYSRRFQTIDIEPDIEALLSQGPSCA
Protocol: as §1, §2
(§5) To measure GPX activity, assays were performed in 1536-well format in black medium-binding solid-bottom plates (Greiner). These assay conditions were optimized for high-throughput screening from an assay first described by Paglia and Valentine. GPX activity is measured indirectly by coupling the reaction with GR whereby GPX reduces hydroperoxide by oxidizing two GSH to GSSG and the oxidized glutathione is recycled to its reduced state by GR and NADPH (Fig. 1B). The rate of consumption of NADPH is directly proportional to the activity of GPX and can be measured by the decrease in fluorescence at 340 nm/450 nm.
(§6) First, 3 μL of enzyme in TES assay buffer (50 mM Tris-HCl, 2 mM EDTA (pH 7.5), 150 mM NaCl with enzyme [10 nM GPX1, 200 nM GPX4 ] and BSA [0.01%]) was added to columns 3–48 of 1536-well plates using a BioRAPTR Flying Reagent Dispenser (Let's Go Robotics (LGR), Carlsbad, CA). A no-enzyme control (0.01% BSA in TES assay buffer) was added to columns 1–2. Compounds (25 nL, library and DMSO controls) were added to each well with a pin tool (Kalypsys), and the plates were incubated for 30 min at room temperature before 1 μL of master mix (100 nM GR, 1 mM GSH, 0.5 mM NADPH in TES buffer) was added. 1 μL of cumene hydroperoxide (CHP) ([0.5 mM] in 50% EtOH) was then added within 5 min to initiate the reaction. Fluorescence at 340/450 nm was measured using a ViewLux multimodal detector (PerkinElmer, Waltham, MA) at initial t = 0 and endpoint t = 15 min (GPX1) or t = 20 min (GPX4).
(§7) Follow-up confirmation assays were also run in 96-well format using medium binding clear 96-well SpectraPlate microplates (PerkinElmer) and NADPH absorbance at 340 nm was measured every 30 s for 30 min using an Infinite® M Nano (Tecan).
as §3, §4

human TXNRD1 = molecular target: T4, human TXNRD1 (Homo sapiens, UniProt Q16881); test: Thioredoxin reductase 1 (TXNRD1) inhibition assay (selenite reduction)
T4 construct: made in house
T4 sequence (Q16881 1-499 isoform Q16881-5): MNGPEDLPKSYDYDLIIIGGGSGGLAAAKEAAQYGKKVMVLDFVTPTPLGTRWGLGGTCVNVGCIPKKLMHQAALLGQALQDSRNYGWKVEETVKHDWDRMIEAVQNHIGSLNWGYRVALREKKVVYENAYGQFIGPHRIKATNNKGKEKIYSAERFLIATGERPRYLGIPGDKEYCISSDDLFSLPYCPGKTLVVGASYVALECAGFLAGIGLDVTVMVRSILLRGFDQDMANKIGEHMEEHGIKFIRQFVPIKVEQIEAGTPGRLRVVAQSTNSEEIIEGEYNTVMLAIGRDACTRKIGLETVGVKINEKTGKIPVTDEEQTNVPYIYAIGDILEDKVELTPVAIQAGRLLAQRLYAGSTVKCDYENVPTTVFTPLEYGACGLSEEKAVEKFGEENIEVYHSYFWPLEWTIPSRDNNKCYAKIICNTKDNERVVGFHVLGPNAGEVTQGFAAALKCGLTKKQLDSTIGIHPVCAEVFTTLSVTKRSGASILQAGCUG
Protocol: as §1, §2
TXNRD1 activity was assessed using a modified 1536-well TXNRD1 inhibition assay, based upon TXNRD1-catalyzed selenite reduction as previously described (Fig. 1D). […] TE buffer was dispensed into column 1 and 2 as a no-enzyme control. Finally, 1 μL of sodium selenite in TE buffer was dispensed into each well for final concentrations of 90 nM hTXNRD1, 0.4 mM NADPH, and 0.4 mM sodium selenite. The plate was read in a Viewlux multimodal detector in kinetic mode and fluorescence at 340 nm/450 nm was measured every minute for 8 min.
as §3, §4

GPX4 = molecular target: T5, GPX4 (Homo sapiens, UniProt P36969); test: GR-coupled GPX4 activity assay (NADPH fluorescence, CHP substrate)
T5 construct: made in house; host or cells: E. coli
T5 sequence (P36969 1-170 isoform P36969-2): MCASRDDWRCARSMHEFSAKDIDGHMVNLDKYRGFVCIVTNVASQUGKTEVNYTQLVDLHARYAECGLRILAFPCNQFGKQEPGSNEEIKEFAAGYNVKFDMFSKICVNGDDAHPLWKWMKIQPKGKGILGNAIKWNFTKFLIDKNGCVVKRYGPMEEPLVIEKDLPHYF
Protocol: as §1, §2, §5, §6, §7, §3, §4

Compound | inhibition of GR [1] | inhibition of GPX2 (human GPX2) | inhibition of GPX1 (GPX1) | inhibition of TXNRD1 (human TXNRD1) | inhibition of GPX4 (GPX4)
CO[C@@]1(NC(=O)C2SC(=C(C(N)=O)C(=O)O)S2)C(=O)N2C(C(=O)O)=C(CSc3nnnn3C)CS[C@@H]21 (stereo partly drawn) [cefotetan sodium] | not GR | inhibited all tested selenoproteins | inhibited all tested selenoproteins | inhibited all tested selenoproteins | inhibited all tested selenoproteins
Cc1ccc(NC(=O)N2CCN(c3nc(N)nc4sc(-c5cccnc5)nc34)CC2)cc1 [PI4KIII beta inhibitor 3] | not GR | inhibited all tested selenoproteins | inhibited all tested selenoproteins | inhibited all tested selenoproteins | inhibited all tested selenoproteins
CC(OC(=O)OC1CCCCC1)OC(=O)C1=C(CSc2nnnn2CCN(C)C)CS[C@@H]2[C@H](NC(=O)Cc3csc(N)n3)C(=O)N12 (stereo partly drawn) [SCE-2174] | not GR | inhibited all tested selenoproteins | inhibited all tested selenoproteins | inhibited all tested selenoproteins | inhibited all tested selenoproteins
